Results: patent US12453712B2, “Antitumoral use of cabazitaxel” (Sanofi Mature IP, priority 2009, dated 2025)
Where two headings read alike, the source gives them in different places.

Columns and labels:
[1] = test system: CYP3A; assay: Metabolism of cabazitaxel
From the text: Concomitant administration of strong CYP3A inhibitors (for example, ketoconazole, itraconazole, clarithromycin, atazanavir, indinavir, nefazodone, nelfinavir, ritonavir, saquinavir, telithromycin, voriconazole) may increase cabazitaxel concentrations. Therefore co-administration of cabazitaxel with strong CYP3A inhibitors should be avoided. Caution should be exercised with concomitant use of moderate CYP3A inhibitors. One aspect of the invention is a method of treating a patient for prostate cancer comprising determining whether the patient is undergoing treatment with a CYP3A inhibitor, discontinuing treatment with a CYP3A inhibitor, and then administering cabazitaxel to the patient.

[2] = test system: castration resistant metastatic prostate cancer; assay: Randomized clinical study of cabazitaxel vs mitoxantrone, each with prednisone or prednisolone: efficacy; format: in vivo, human
Procedure: A clinical study was performed wherein patients received either treatment with cabazitaxel or the reference treatment based on mitoxantrone each combined with prednisone or prednisolone.
More specifically, patients over 18 years of age with metastatic castration resistant metastatic prostate cancer either measurable by RECIST criteria or non-measurable disease with rising PSA levels or appearance of new lesions, ECOG (Eastern Cooperative Oncology Group) performance stage 0-2, and adequate organ function (patients had to have neutrophils >1,500 cells/mm^3, platelets >100,000 cells/mm^3, hemoglobin >10 g/dL, creatinine <1.5×upper limit of normal (ULN), total bilirubin <1×ULN, AST <1.5×ULN, and ALT <1.5×ULN) who had had prior hormone therapy, chemotherapy, and radiotherapy, but had progressive during or after docetaxel treatment (cumulative dose ≥225 mg/m^2) were randomized to 10 mg/day of prednisone with either mitoxantrone 12 mg/m^2 or cabazitaxel 25 mg/m^2, both administered every 3 weeks.
Patients with a history of congestive heart failure, or myocardial infarction within the last 6 months, or patients with uncontrolled cardiac arrhythmias, angina pectoris, and/or hypertension were not included in the study.
720 patients were planned to be included in the clinical study: 360 in each cabazitaxel+prednisone and mitoxantrone+prednisone group. Seven hundred and fifty-five patients (755) (median age 68; 84% white) were actually enrolled, 378 in the cabazitaxel and prednisone/prednisolone group and 377 in the mitoxantrone and prednisone/prednisolone group. The maximal number of treatment cycles was 10 for cabazitaxel and 10 for mitoxantrone. The median number of treatment cycles was 6 for cabazitaxel and 4 for mitoxantrone. The median prior dose of docetaxel treatment was 576 mg/m^2 for the cabazitaxel group and 529 mg/m^2 for the mitoxantrone group. Median follow-up was 12.8 months.
The measurements of the results are performed via the same tests as at inclusion. MRI and spiral computed tomographic (CT) scans are preferably used.
The results are evaluated according to the following criteria (cf RECIST guideline): • overall survival (OS): the time from inclusion to the study to the date of death complete response (CR): disappearance of the lesions • partial response (PR): at least 30% reduction of the largest diameter of the lesion progression (PD): at least 20% increase in the sum of the largest diameter of the lesion or appearance of one or more new lesions • stable disease (SD): reduction of the tumour insufficient to be included in PR and increase of the tumour insufficient to be included in PD.
The confirmations of the measurements are made at least 4 weeks after the response criterion has been established for the first time.
The progression-free survival (PFS) is the time from inclusion in the study and the date of progression or death when the progression is either an increase of the PSA, or of the tumour, or of the pain.

[3] = test system: breast cancer; conditions: phase II, cited from earlier work
[4] = Population pharmacokinetic analysis in patients; format: in vivo, human; conditions: for Cmax: CV 107%; for half-life: 1-hour intravenous infusion, 3-compartment PK model
Procedure: A population pharmacokinetic analysis was conducted in 170 patients with solid tumors at doses ranging from 10 to 30 mg/m^2 weekly or every 3 weeks.

CO[C@H]1C(=O)[C@]2(C)[C@@H](OC)C[C@H]3OC[C@@]3(OC(C)=O)[C@H]2[C@H](OC(=O)c2ccccc2)[C@]2(O)C[C@H](OC(=O)[C@H](O)[C@@H](NC(=O)OC(C)(C)C)c3ccccc3)C(C)=C1C2(C)C [cabazitaxel, 4α-acetoxy-2α-benzoyloxy-5β,20-epoxy-1β-hydroxy-7β,10β-dimethoxy-9-oxo-11-taxen-13α-yl (2R,3S)-3-tert-butoxycarbonyl-amino-2-hydroxy-3-phenylpropionate]
metabolic pathway [1]: primarily metabolized through CYP3A
Overall survival Hazard ratio (95% CI) ([2]; CbzP vs MP, intention-to-treat): 0.70
PFS Hazard ratio (95% CI) ([2]; CbzP vs MP, intention-to-treat): 0.74
reduction in risk of death ([2]; cabazitaxel vs mitoxantrone, corresponding to hazard ratio 0.70): 30%
Discontinuation of study treatment for disease progression, (%) ([2]; intention-to-treat): (47.6) %
Discontinuation of study treatment for disease progression, no. ([2]; intention-to-treat, N = 377 mitoxantrone, N = 378 cabazitaxel): 180
Overall survival Median ([2]; intention-to-treat, 25 mg/m^2 cabazitaxel or 12 mg/m^2 mitoxantrone every 3 weeks with prednisone): 15.1 months
PFS Median ([2]; intention-to-treat, earliest progression in tumor, PSA or pain): 2.8 months
response level ([3]; prior taxanes and anthracyclines as adjuvant): 14.6%
response level ([3]; second-line treatment): 9.5%
dose proportionality ([4]; 10 to 30 mg/m^2, patients with advanced solid tumors): No major deviation from the dose proportionality
volume of distribution (Vss) ([4]; at steady state, for a patient with a median BSA of 1.84 m^2): 2,643 L/m^2
plasma clearance ([4]; for a patient with a median BSA of 1.84 m^2): 26.4 L/h/m^2
Tmax ([4]; human, plasma, intravenous, 25 mg/m^2, Cmax reached at the end of the 1-hour infusion): 1 h
Cmax ([4]; human, plasma, intravenous, 25 mg/m^2, amount administered to provide this Cmax, read-out: Cmax): ~226 ng/mL
Vd ([4]; human, plasma, intravenous, at steady state, read-out: volume of distribution (Vss)): 4860 L
half-life ([4]; human, plasma, iv, read-out: α-half-life): 0.0667 h
half-life ([4]; human, plasma, iv, read-out: β-half-life (converted)): 2 h
half-life ([4]; human, plasma, iv, read-out: γ-half-life (converted)): 95 h
Cmax ([4]; male, human, plasma, 25 mg/m2, intravenous 25 mg/m^2 every 3 weeks, patients with metastatic prostate cancer, read-out: mean Cmax): 226 ng/mL
clearance ([4]; male, human, plasma, intravenous, patients with metastatic prostate cancer, CV 39%): 808 mL/min
AUC ([4]; male, human, plasma, iv, 25 mg/m2, intravenous 25 mg/m^2 every 3 weeks, patients with metastatic prostate cancer, CV 34%): 991 ng·h/mL
effect of prednisone or prednisolone on the pharmacokinetics of cabazitaxel ([4]; prednisone or prednisolone 10 mg daily): does not affect
